Laboratory results: the supplement of paper PMC10307832

Key:
Assay in all cases: relative viability (nuclei count vs DMSO), 5 days (fraction); higher = more cells survive
[1] = compound: CC1=C(C(=NN1)C)CC2=C(C3=C(S2)N(C(=O)N(C3=O)C)CC(C)C)C(=O)N4C[C@@H](CO4)O + Cc1cc(Nc2cc(N3CCN(C)CC3)nc(Sc3ccc(NC(=O)C4CC4)cc3)n2)n[nH]1 [Tozasertib] (partner 0.1 µM)
How it was run: (§1)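 Lung cancer cell lines in 1536-well plates were dosed by pin tool the day after seeding, either with one drug alone or with a fixed anchor-drug dose plus five library-drug doses (not always all listed) in √10 steps. After 5 days, cells were fixed and their nuclei stained in one step (final 0.05% Triton X-100, 1% formaldehyde, 1 ug/ml Hoechst), then counted on 4× images. Relative viability is the nuclei count in treated wells divided by that in vehicle wells. Values are medians of duplicate plates.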

[2] = compound: Cc1ccccc1C(C(=O)NC1CCCCC1)N(C(=O)Cn1ccnc1C)c1cccc(F)c1 [IDH-C35] + CC(=O)c1c(C)c2cnc(Nc3ccc(N4CCNCC4)cn3)nc2n(C2CCCC2)c1=O [Palbociclib] (partner 0.5 µM)
How it was run: as §1

[3] = compound: Cc1ccccc1C(C(=O)NC1CCCCC1)N(C(=O)Cn1ccnc1C)c1cccc(F)c1 [IDH-C35] + CS(=O)(=O)CCNCc1ccc(-c2ccc3ncnc(Nc4ccc(OCc5cccc(F)c5)c(Cl)c4)c3c2)o1 [Lapatinib] (partner 2 µM)
How it was run: as §1

[4] = compound: Cc1ccccc1C(C(=O)NC1CCCCC1)N(C(=O)Cn1ccnc1C)c1cccc(F)c1 [IDH-C35] + O=C(c1cc(Cc2n[nH]c(=O)c3ccccc23)ccc1F)N1CCN(C(=O)C2CC2)CC1 [Olaparib] (partner 8 µM)
How it was run: as §1

UMC-11
relative viability ([1]; first compound 0.0025 µM): 0.199 | relative viability ([1]; first compound 0.007906 µM): 0.172 | relative viability ([1]; first compound 0.025 µM): 0.196 | relative viability ([1]; first compound 0.07906 µM): 0.207 | relative viability ([1]; first compound 0.25 µM): 0.175 | relative viability ([2]; first compound 0.08 µM): 0.335 | relative viability ([2]; first compound 0.253 µM): 0.32 | relative viability ([2]; first compound 0.8 µM): 0.341 | relative viability ([2]; first compound 2.53 µM): 0.299 | relative viability ([2]; first compound 8 µM): 0.337 | relative viability ([3]; first compound 0.08 µM): 1.01 | relative viability ([3]; first compound 0.253 µM): 0.976 | relative viability ([3]; first compound 0.8 µM): 0.98 | relative viability ([3]; first compound 2.53 µM): 0.96 | relative viability ([3]; first compound 8 µM): 1.09 | relative viability ([4]; first compound 0.08 µM): 0.383 | relative viability ([4]; first compound 0.253 µM): 0.366 | relative viability ([4]; first compound 0.8 µM): 0.402 | relative viability ([4]; first compound 2.53 µM): 0.382 | relative viability ([4]; first compound 8 µM): 0.445
